Data reported in patent publication US20110257168A1, “DERIVATIVES OF OXABISPIDINE AS NEURONAL NICOTINIC ACETYLCHOLINE RECEPTOR LIGANDS” (Targacept, Inc., priority 2008, published 2011).
Read-outs that look alike come from different tables or passages of the source.

Legend:
Rat α7 = target: T1, Rat α7 (Rattus norvegicus, UniProt Q05941); test: Competition binding to rat α7 receptors in membrane preparations; settings: membranes, [3H]-epibatidine competition; Ki by Cheng-Prusoff; read-out: Rat α7 Ki
T1 construct: Preparation of membranes from rat tissues; Rat cortices were obtained from Analytical Biological Services; tissue Analytical Biological Services, Incorporated (ABS, Wilmington, Del.); host or cells: rat brain membranes (only cortex is described)
Description: (§1) Preparation of membranes from rat tissues. Rat cortices were obtained from Analytical Biological Services, Incorporated (ABS, Wilmington, Del.). Tissues were dissected from female Sprague-Dawley rats, frozen and shipped on dry ice. Tissues were stored at −20° C. until needed for membrane preparation. Cortices from 10 rats were pooled and homogenized by Polytron (Kinematica GmbH, Switzerland) in 10 volumes (weight:volume) of ice-cold preparative buffer (KCl, 11 mM; KH2PO4, 6 mM; NaCl 137 mM; Na2HPO4 8 mM; HEPES (free acid), 20 mM; iodoacetamide, 5 mM; EDTA, 1.5 mM; 0.1 mM PMSF pH 7.4). The resulting homogenate was centrifuged at 40,000 g for 20 minutes at 4° C. and the resulting pellet was resuspended in 20 volumes of ice-cold water. After 60-minute incubation at 4° C., a new pellet was collected by centrifugation at 40,000 g for 20 minutes at 4° C. The final pellet was resuspended in preparative buffer and stored at −20° C. On the day of the assay, tissue was thawed, centrifuged at 40,000 g for 20 minutes and then resuspended in PBS (Dulbecco's Phosphate Buffered Saline, Life Technologies, pH 7.4) to a final concentration of 2-3 mg protein/mL. Protein concentrations were determined using the Pierce BCA Protein Assay kit (Pierce Biotechnology, Rockford, Ill.), with bovine serum albumin as the standard. Preparation of membranes from clonal cell lines. Cells were harvested in ice-cold PBS, pH 7.4, then homogenized with a polytron (Brinkmann Instruments, Westbury, N.Y.). Homogenates were centrifuged at 40,000 g for 20 minutes (4° C.). The pellet was resuspended in PBS and protein concentration determined using the Pierce BCA Protein Assay kit (Pierce Biotechnology, Rockford, Ill.).
(§2) Competition binding to receptors in membrane preparations. Binding to nicotinic receptors was assayed on membranes using standard methods adapted from published procedures (Lippiello and Fernandes, 1986; Davies et al., 1999). In brief, membranes were reconstituted from frozen stocks (approximately 0.2 mg protein) and incubated for 2 h on ice in […] assay buffer (PBS) in the presence of competitor compound (0.001 nM to […]) and radioligand. [^3H]-nicotine (L-(−)-[N-methyl-3H]-nicotine, 69.5 Ci/mmol, Perkin-Elmer Life Sciences) was used for human α4β2 binding studies. [^3H]-epibatidine (52 Ci/mmol, Perkin-Elmer Life Sciences) was used for binding studies at the other receptor subtypes. Incubation was terminated by rapid filtration on a multimanifold tissue harvester (Brandel, Gaithersburg, Md.) using GF/B filters presoaked in 0.33% polyethyleneimine (w/v) to reduce non-specific binding. Filters were washed 3 times and the radioactivity retained was determined by liquid scintillation counting.
(§3) Binding data analysis. Binding data were expressed as percent total control binding. Replicates for each point were averaged and plotted against the log of drug concentration. The IC50 (concentration of the compound that produces 50% inhibition of binding) was determined by least squares non-linear regression using GraphPad Prism software (GraphPAD, San Diego, Calif.). Ki was calculated using the Cheng-Prusoff equation (Cheng and Prusoff, 1973).

Human α7 = target: T2, Human α7 (Homo sapiens, UniProt P36544); test: Competition binding to human α7 receptors in membrane preparations; settings: membranes, [3H]-epibatidine competition; Ki by Cheng-Prusoff; read-out: Human α7 Ki
T2 construct: host or cells: HEK cells co-expressing RIC3
Description: (§4) SH-EP1/human α4β2 (Eaton et al., 2003), SH-EP1/human α4β4 (Gentry et al., 2003), SH-EP1/α6β3β4α5 (Grinevich et al., 2005), TE671/RD and SH-SY5Y cell lines (obtained from Dr. Ron Lukas, Barrow Neurological Institute) were maintained in proliferative growth phase in Dulbecco's modified Eagle's medium (Gibco/BRL) with 10% horse serum (Gibco BRL), 5% fetal bovine serum (HyClone, Logan Utah), 1 mM sodium pyruvate, 4 mM L-glutamine. For maintenance of stable transfectants, the α4β2 and α4β4 cell media was supplemented with 0.25 mg/mL zeocin and 0.13 mg/mL hygromycin B. Selection was maintained for the α6β3β4α5 cells with 0.25 mg/mL of zeocin, 0.13 mg/mL of hygromycin B, 0.4 mg/mL of geneticin, and 0.2 mg/mL of blasticidin. HEK/human α7/RIC3 cells (obtained from J. Lindstrom, U. Pennsylvania) were maintained in proliferative growth phase in Dulbecco's modified Eagle's medium (Gibco/BRL) with 10% fetal bovine serum (HyClone, Logan Utah), 1 mM sodium pyruvate, 4 mM L-glutamine, 0.4 mg/mL geneticin; 0.2 mg/ml hygromycin B.
as §1, §2
(§5) Binding data analysis. Binding data were expressed as percent total control binding. Replicates for each point were averaged and plotted against the log of drug concentration. […]

Rat α4β2 = target: T3, Rat α4β2 (Rattus norvegicus, UniProt P09483+P12390); test: Competition binding to rat α4β2 receptors in membrane preparations
T3 construct: Preparation of membranes from rat tissues; Rat cortices were obtained from Analytical Biological Services; tissue Analytical Biological Services, Incorporated (ABS, Wilmington, Del.); host or cells: rat cortex membranes (female Sprague-Dawley)
Description: as §1, §2, §3

human α4β2 = human α4β2 (Homo sapiens, UniProt P17787+P43681); test: Competition binding to human α4β2 receptors in membrane preparations
Description: as §4, §1, §2, §5

[1] = membranes, [3H]-epibatidine competition, Ki by Cheng-Prusoff, read-out: Rat α4β2 Ki
[2] = membranes, [3H]-nicotine competition, Ki by Cheng-Prusoff, read-out: human α4β2 Ki

Compound	Ki (Rat α7) [nM]	Ki (Human α7) [nM]	Ki (Rat α4β2; [1]) [nM]	Ki (human α4β2) [nM]	Ki (Rat α4β2) [nM]	Ki (human α4β2; [2]) [nM]
Clc1cc(N2CC3CNCC(C2)O3)cnc1Cl [3-(5,6-dichloropyridin-3-yl)-9-oxa-3,7-diazabicyclo[3.3.1]nonane]	84	39	0.7	0.3	–	–
Clc1ccc(Oc2cncc(N3CC4CNCC(C3)O4)c2)cc1Cl [3-(5-(3,4-dichlorophenoxy)pyridin-3-yl)-9-oxa-3,7-diazabicyclo[3.3.1]nonane]	210	360	–	–	11	3.5
c1ncc(N2CC3CNCC(C2)O3)cc1OCC1CC1 [3-(5-(cyclopropylmethoxy)pyridin-3-yl)-9-oxa-3,7-diazabicyclo[3.3.1]nonane]	9300	–	–	–	2.9	0.5
Clc1cncc(N2CC3CNCC(C2)O3)c1 [3-(5-chloropyridin-3-yl)-9-oxa-3,7-diazabicydo[3.3.1]nonane]	370	180	2.1	1	–	–
CC(C)Oc1cncc(N2CC3CNCC(C2)O3)c1 [3-(5-isopropoxypyridin-3-yl)-9-oxa-3,7-diazabicyclo[3.3.1]nonane]	61000	–	–	–	1.3	0.9
COc1cc(N2CC3CNCC(C2)O3)cnc1F [3-(5-methoxy-6-fluoropyridin-3-yl)-9-oxa-3,7-diazabicyclo[3.3.1]nonane]	–	1000	1.1	0.43	–	–
COc1cncc(N2CC3CNCC(C2)O3)c1 [3-(5-methoxypyridin-3-yl)-9-oxa-3,7-diazabicyclo[3.3.1]nonane]	560	350	–	–	1.9	0.9
Cc1cncc(N2CC3CN(C)CC(C2)O3)c1 [3-(5-methylpyridin-3-yl)-7-methyl-9-oxa-3,7-diazabicyclo[3.3.1]nonane]	–	8700	370	–	–	25
Cc1cncc(N2CC3CNCC(C2)O3)c1 [3-(5-methylpyridin-3-yl)-9-oxa-3,7-diazabicydo[3.3.1]nonane]	200	4500	–	–	0.5	0.3
FC(F)(F)c1cncc(N2CC3CNCC(C2)O3)c1 [3-(5-trifluoromethylpyridin-3-yl)-9-oxa-3,7-diazabicyclo[3.3.1]nonane]	17000	–	–	–	9.7	3.8
FC(F)Oc1cc(N2CC3CNCC(C2)O3)cnc1Cl [3-(6-chloro-5-(difluoromethoxy)pyridin-3-yl)-9-oxa-3,7-diazabicyclo[3.3.1]nonane]	–	560	–	–	0.08	0.16
Clc1ccc(N2CC3CNCC(C2)O3)nn1 [3-(6-chloropyridazin-3-yl)-9-oxa-3,7-diazabicyclo[3.3.1]nonane]	–	1300	96	63	–	–
Clc1ccc(N2CC3CNCC(C2)O3)cn1 [3-(6-chloropyridin-3-yl)-9-oxa-3,7-diazabicydo[3.3.1]nonane]	210	240	–	–	5.2	1.2
N#Cc1ncc(N2CC3CNCC(C2)O3)cc1OC(F)F [3-(6-cyano-5-(difluoromethoxy)pyridin-3-yl)-9-oxa-3,7-diazabicyclo[3.3.1]nonane]	–	940	–	–	0.12	0.26
N#Cc1ccc(N2CC3CNCC(C2)O3)cn1 [3-(6-cyanopyridin-3-yl)-9-oxa-3,7-diazabicyclo[3.3.1]nonane]	–	8100	290	–	–	42
Fc1ccc(N2CC3CNCC(C2)O3)cn1 [3-(6-fluoropyridin-3-yl)-9-oxa-3,7-diazabicyclo[3.3.1]nonane]	1400	180	–	–	16	2.5
Cc1ccc(N2CC3CNCC(C2)O3)cn1 [3-(6-methylpyridin-3-yl)-9-oxa-3,7-diazabicydo[3.3.1]nonane]	–	600	30	4.9	–	–
FC(F)(F)c1ccc(N2CC3CNCC(C2)O3)cn1 [3-(6-trifluoromethylpyridin-3-yl)-9-oxa-3,7-diazabicyclo[3.3.1]nonane]	–	1900	48	6.8	–	–
c1cc2cc(N3CC4CNCC(C3)O4)cnc2o1 [3-(furo[2,3-b]pyridin-5-yl)-9-oxa-3,7-diazabicyclo[3.3.1]nonane]	–	6600	–	–	23	48
c1cc2ncc(N3CC4CNCC(C3)O4)cc2o1 [3-(furo[3,2-b]pyridin-6-yl)-9-oxa-3,7-diazabicyclo[3.3.1]nonane]	–	5700	–	–	91	50
c1cnc(N2CC3CNCC(C2)O3)cn1 [3-(pyrazin-2-yl)-9-oxa-3,7-diazabicyclo[3.3.1]nonane]	–	2200	250	–	–	37
c1cncc(N2CC3CNCC(C2)O3)c1 [3-(pyridin-3-yl)-9-oxa-3,7-diazabicyclo[3.3.1]nonane]	650	670	–	–	3.9	1.1
c1ncc(N2CC3CNCC(C2)O3)cn1 [3-(pyrimidin-5-yl)-9-oxa-3,7-diazabicyclo[3.3.1]nonane]	3200	2900	–	–	8	7.6
CN1CC2CN(c3cccnc3)CC(C1)O2 [3-methyl-7-(pyridin-3-yl)-9-oxa-3,7-diazabicyclo[3.3.1]nonane]	–	5900	180	–	–	95
